# Results reported in US20240400562A1, “COMPOUNDS AND COMPOSITIONS FOR TREATING CONDITIONS ASSOCIATED WITH LPA RECEPTOR ACTIVITY” (LHOTSE, BIO, INC., priority 2021, published 2024).
# Tests used:
# [1] = biological target: T1, human LPA1 (Homo sapiens, UniProt Q92633); assay: In vitro LPA1 calcium flux antagonist assay; assay type: cell-based; details: CHO-K1 cells overexpressing human LPA1 and G15a, LPA challenge at EC80, FLIPR calcium mobilization
# T1 construct: expressed in transfected cells; host or cells: CHO-K1
# Experimental: CHO-K1 cells overexpressing human LPA1 and G15a were seeded at a total volume of 20 μL (15000 cells/well) into Matrigel pre-coated 384-well plates (corning −3764) and incubated at 37° C. After overnight incubation, the cells were serum starved for 4 h. Assays were performed in dye loading buffer containing 1×Fluo-8 AM (AAT Bioquest, 21080) and 2.5 mM probenecid (Thermo Fisher, 36400) in HBSS/20 mM Hepes. After cell starvation, the medium was replaced with 20 μL of dye loading buffer and incubated at 37° C. for 30 min. Then 5 μL of 5× compound titrated in dye loading buffer was added to the cells and incubated for 30 min followed by LPA challenge at EC80. Calcium mobilization was measured on a FLIPR Tetra (MDS). For LPA EC80 determination, starved cells were incubated with 20 μL of dye loading buffer for 1 h, then 5 μL of 5×LPA titrated in dye loading buffer was added to the cells. Calcium signals induced by LPA was monitors on a FLIPR.
# Percentage inhibition is calculated using the following formula: […]
# [2] = Pharmacokinetics measurements in rats; assay type: in vivo; details: SD male rats, plasma; for Cl_obs / AUC(0-t) / Cmax / Tmax: mean; for bioavailability / AUC(0-t) / Cmax / Tmax: rat; for bioavailability: PO 5 mg/kg vs IV 1 mg/kg
# Experimental: The PK properties of selected compounds were measured in SD Male rats following single oral (5 mg/kg) and Intravenous Administration (1 mg/kg).
# Compounds 103 and 104 were prepared in a 1 mg/mL solution of 10% Solutol HS15 and 90% saline for oral administrations at 5 mL/kg and 0.2 mg/mL solution of 10% Solutol HS15 and 90% saline for intravenous administrations at 1 mL/kg, respectively, and administered to 3 rats per group. After dosing, blood collection was performed by Jugular vein sampling (by cannula) at 0.25, 0.5, 1, 2, 4, 6, 8, 24 h, and 0.083, 0.25, 0.5, 1, 2, 4, 8, 24 h, respectively, followed by centrifugation to obtain plasma. Samples were stored frozen at −80° C. prior to compound extraction and LC-MS/MS analysis. Pharmacokinetic parameters of compounds 103 and 104 in rats were calculated by standard noncompartmental modeling from the systemic plasma concentration-time profile.
# [3] = Pharmacokinetics measurements in mice; assay type: in vivo; details: mouse; CD1 female mice, single oral 5 mg/kg, plasma, mean
# Experimental: The PK properties of selected compounds were measured in CD1 female mice following single oral (5 mg/kg) administration.
# Compounds 103 and 104 were prepared in a 1 mg/mL solution of 10% Solutol HS15 and 90%, saline for oral administrations at 5 mL/kg, respectively, and administered to 3 mice/3 groups. After dosing, blood collection was performed by dorsal metatarsal vein sampling at 0.25, 0.5, 1, 2, 4, 6, 8, 24 h, followed by centrifugation to obtain plasma. Samples were stored frozen at −80° C. prior to compound extraction and LC-MS/MS analysis. Pharmacokinetic parameters of compounds 103 and 104 in mice were calculated by standard noncompartmental modeling from the systemic plasma concentration-time profile.
# T1 sequence (Q92633 whole entry): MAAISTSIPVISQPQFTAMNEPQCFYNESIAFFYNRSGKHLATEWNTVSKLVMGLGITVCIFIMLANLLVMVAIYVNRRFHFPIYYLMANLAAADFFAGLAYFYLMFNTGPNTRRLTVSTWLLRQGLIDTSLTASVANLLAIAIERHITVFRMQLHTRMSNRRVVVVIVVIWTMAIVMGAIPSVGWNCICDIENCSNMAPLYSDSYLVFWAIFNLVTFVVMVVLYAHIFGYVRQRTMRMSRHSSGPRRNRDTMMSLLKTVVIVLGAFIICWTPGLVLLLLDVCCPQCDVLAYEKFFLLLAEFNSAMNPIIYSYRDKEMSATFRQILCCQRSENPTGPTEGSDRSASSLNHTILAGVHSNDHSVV
smiles,measurement,setting,value
"CCOc1cc(C(=O)O)c2nc(C[C@H](OC3CCCC3)[C@H](O)c3ccc(C)c(OC)c3)sc2c1 [Compound 101, 2-((2S,3R)-2-(cyclopentyloxy)-3-hydroxy-3-(3-methoxy-4-methylphenyl)propyl)-6-ethoxybenzo[d]thiazole-4-carboxylic acid]",IC50,[1],< 10 nM
"COc1cc(C(=O)O)c2nc(C[C@H](OC3CCCC3)[C@H](O)c3ccc(C(F)F)c(OC)c3)sc2c1 [Compound 102, 2-((2S,3R)-2-(cyclopentyloxy)-3-(4-(difluoromethyl)-3-methoxyphenyl)-3-hydroxypropyl)-6-methoxybenzo[d]thiazole-4-carboxylic acid]",IC50,[1],< 10 nM
"COc1cc([C@@H](O)[C@H](Cc2nc3c(C(=O)O)cc(CO)cc3s2)OC2CCCC2)cc(OC)c1C [Compound 103, 2-((2S,3R)-2-(cyclopentyloxy)-3-(3,5-dimethoxy-4-methylphenyl)-3-hydroxypropyl)-6-(hydroxymethyl)benzo[d]thiazole-4-carboxylic acid]",Cl_obs,[2]; IV 1 mg/kg,12.9 mL/min/kg
same,bioavailability,[2],27.3%
same,AUC(0-t),[2]; IV 1 mg/kg,1330 ng·h/mL
same,AUC(0-t),[2]; PO 5 mg/kg,1790 ng·h/mL
same,Cmax,[2]; PO 5 mg/kg,1490 ng/mL
same,Tmax,[2]; PO 5 mg/kg,15 min
same,IC50,[1],10 to 100 nM
same,AUC(0-t),[3],1640 ng·h/mL
same,Cmax,[3],463 ng/mL
same,Tmax,[3],30 min
"COCc1cc(C(=O)O)c2nc(C[C@H](OC3CCCC3)[C@H](O)c3cc(OC)c(C)c(OC)c3)sc2c1 [Compound 104, 2-((2S,3R)-2-(cyclopentyloxy)-3-(3,5-dimethoxy-4-methylphenyl)-3-hydroxypropyl)-6-(methoxymethyl)benzo[d]thiazole-4-carboxylic acid]",Cl_obs,[2]; IV 1 mg/kg,8.8 mL/min/kg
same,bioavailability,[2],30.3%
same,AUC(0-t),[2]; IV 1 mg/kg,1900 ng·h/mL
same,AUC(0-t),[2]; PO 5 mg/kg,2890 ng·h/mL
same,Cmax,[2]; PO 5 mg/kg,1520 ng/mL
same,Tmax,[2]; PO 5 mg/kg,15 min
same,IC50,[1],< 10 nM
same,AUC(0-t),[3],6950 ng·h/mL
same,Cmax,[3],3840 ng/mL
same,Tmax,[3],15 min
"CNc1cc(C(=O)O)c2nc(C[C@H](OC3CCCC3)[C@H](O)c3cc(OC)c(C)c(OC)c3)sc2c1 [Compound 105, 2-((2S,3R)-2-(cyclopentyloxy)-3-(3,5-dimethoxy-4-methylphenyl)-3-hydroxypropyl)-6-(methylamino)benzo[d]thiazole-4-carboxylic acid]",IC50,[1],< 10 nM
"COc1cc([C@@H](O)[C@H](Cc2nc3c(C(=O)O)cc(N(C)C)cc3s2)OC2CCCC2)cc(OC)c1C [Compound 106, 2-((2S,3R)-2-(cyclopentyloxy)-3-(3,5-dimethoxy-4-methylphenyl)-3-hydroxypropyl)-6-(dimethylamino)benzo[d]thiazole-4-carboxylic acid]",IC50,[1],< 10 nM
"COc1cc([C@@H](O)[C@H](Cc2nc3c(C(=O)O)ccc(OC)c3s2)OC2CCCC2)cc(OC)c1C [Compound 107, 2-((2S,3R)-2-(cyclopentyloxy)-3-(3,5-dimethoxy-4-methylphenyl)-3-hydroxypropyl)-7-methoxybenzo[d]thiazole-4-carboxylic acid]",IC50,[1],< 10 nM
"CNc1ccc(C(=O)O)n2nc(C[C@H](OC3CCCC3)[C@H](O)c3cc(OC)c(C)c(OC)c3)cc12 [Compound 108, 2-((2S,3R)-2-(cyclopentyloxy)-3-(3,5-dimethoxy-4-methylphenyl)-3-hydroxypropyl)-4-(methylamino)pyrazolo[1,5-a]pyridine-7-carboxylic acid]",IC50,[1],10 to 100 nM
CCOc1ccc(C(=O)O)c2nc(C[C@H](OC3CCCC3)[C@H](O)c3cc(OC)c(C)c(OC)c3)sc12 [Compound 109],IC50,[1],< 10 nM
COc1cc([C@@H](O)[C@H](Cc2cc3c(N(C)C)ccc(C(=O)O)n3n2)OC2CCCC2)cc(OC)c1C [Compound 110],IC50,[1],> 100 nM
CCOc1cc(C(=O)O)c2nc(C[C@H](OC3CCCC3)[C@H](O)c3cc(OC)cc(OC)c3)sc2c1 [Compound 111],IC50,[1],10 to 100 nM
CCOc1cc(C(=O)O)c2nc(C[C@H](OC3CCCC3)[C@H](O)c3ccc(C(F)F)c(OC)c3)sc2c1 [Compound 112],IC50,[1],10 to 100 nM
CCOc1ccc(C(=O)O)n2nc(C[C@H](OC3CCCC3)[C@H](O)c3cc(OC)c(C)c(OC)c3)cc12 [Compound 113],IC50,[1],10 to 100 nM
CCCc1sc(C[C@H](OC2CCCC2)[C@H](O)c2cc(OC)c(C(C)=O)c(OC)c2)nc1C(C)C(=O)O (some centres unmarked) [Compound 114],IC50,[1],10 to 100 nM
